Data published in patent US20180201662A1, “PEPTIDE FOR PROMOTING CELL MIGRATION AND/OR SKIN WOUND HEALING, PHARMACEUTICAL COMPOSITION CONTAINING THE SAME, AND APPLICATION THEREOF” (Industrial Technology Research Institute, priority 2016, published 2018).
Where no end group is shown, it is not given here. [ ]: non-standard residue; d: D form.

How the values were obtained:
Format in all cases: cell-based
[1] = tested on: human monocyte-derived macrophages; test: TNF-α secretion of monocyte-derived macrophages stimulated with peptides (ELISA)
Method: (§1) Peripheral blood mononuclear cells were isolated from leukocytes in the blood of healthy donors by Ficoll Hypaque.
(§2) Monocytes were isolated from the peripheral blood mononuclear cells by using Human MACS CD14 Isolation Kit.
(§3) Monocytes (2×10^6 cells/mL) were seeded in a 6-well plate containing 2 mL fresh complete medium and cultured at 5% CO2, 37° C. for 6 days. The medium was changed every 2-3 days to make the monocytes differentiate to macrophages.
2. Detection of TNF-α Secretion of Monocyte-Derived Macrophages Stimulated with Peptides
Peptides were added to respective wells of a culturing plate to stimulate macrophages for 48 hours. Macrophages not stimulated were used as a blank group.
2.2.1 TNF-α secreted from macrophages to the supernatant of the culture was detected by a human TNF-α kit.
2.2.2 Absorbance of the supernatant of the culture at 450-540 nm was detected by a SpectraMax M5 microplate reader. Detection limitation of this ELISA kit to TNF-α is about […].

[2] = tested on: human monocyte-derived macrophages; test: MCP-1 secretion of human monocyte-derived macrophages stimulated with peptides (ELISA)
Method: as §1, §2, §3
(§4) 3. Detections of MCP-1 Secretion of Human Umbilical Vein Endothelial Cells HUVECs and Human Monocyte-Derived Macrophages Stimulated with Peptides
(§5) Peptides were added to respective wells of a culturing plate to stimulate HUVECs for 24-48 hours, or to stimulate macrophages for 48 hours. In the experiment for macrophages, macrophages not stimulated were used as a blank group.
(§6) 3.2.1 MCP-1 respectively secreted from HUVECs and macrophages to the supernatant of the culture was detected by a […].
(§7) 3.2.2 Absorbance of the supernatant of the culture at 450-540 nm was detected by a SpectraMax M5 microplate reader. Detection limitation of this ELISA kit to MCP-1 is about […].

[3] = tested on: human umbilical vein endothelial cells (HUVEC); test: MCP-1 secretion of human umbilical vein endothelial cells HUVECs stimulated with peptides (ELISA); conditions: Peptide 6 660 and 165 μg/ml, IL-6 200 and 50 ng/ml, FIG. 2A
Method: as §4, §5, §6, §7

[4] = tested on: human keratinocyte cell line HaCaT; test: MMP9 secretion of human keratinocyte cell line HaCaT stimulated with peptides (ELISA); conditions: 48 hours; peptides 1.5, 1 and 0.5 mg/ml vs IL-6 1000 and 100 ng/ml; FIG. 9
Method: 5. Detection of MMP9 Secretion of Human Keratinocyte Cell Line HaCaT Stimulated with Peptides
Peptides were added to respective wells of a culturing plate to stimulate HaCaT cells for 48 hours. HaCaT cells not stimulated were used as a blank group.
5.2.1 MMP9 secreted from HaCaT cells to the supernatant of the culture was detected by a MMP9 kit (R&D systems, Human MMP-9 DuoSet ELISA (DY911)).
5.2.2 Absorbance of the supernatant of the culture at 450-540 nm was detected by a SpectraMax M5 microplate reader. Detection limitation of this ELISA kit to MMP9 is about […].

[5] = tested on: human keratinocyte cell line HaCaT; test: Cell migration analysis of human keratinocyte cell line HaCaT stimulated with peptides (scratch); conditions: compared to control group; concentrations of 300 μg/ml, 660 μg/ml and 1000 μg/ml; 18 hour; FIG. 3A, 3B
Method: 4. Cell Migration Analysis of Human Keratinocyte Cell Line HaCaT Stimulated with Peptides
4.1 Each well of a 12-well culturing plate was coated with 100 μg/ml of collagen (in 0.02N acetic acid) (0.5 ml/well).
4.2 The culturing plate was placed at 37° C. for 1 hour, and then was washed with Dulbecco's phosphate buffered saline (DPBS) one time.
4.3 HaCaT cells were seeded in the culturing plate with DMEM containing serum (5×10^5 cells/well), and the final serum concentration for each well was 10%.
4.4 The cells were cultured in a condition of 5% CO2, 37° C.
4.5 The medium was replaced with DMEM containing 0.6% serum for serum starvation and culture the cells overnight.
4.6 The bottom of the well of the culturing plate was scraped with 1000 μl tips, and the culturing plate was washed with Dulbecco's phosphate buffered saline twice.
4.7 The cells and peptides were cultured in DMEM containing 0.6% serum. HaCaT cells not stimulated with peptides or growth factors were used as a control group.
4.8 Photographs were taken at 0 hour and 18 hour.
4.9. The photographs were analyzed by Celllmage Comp software, and the migration distances for cells were calculated.

[6] = macrophages of Donor 5, 48 hours, peptides 50 μg/ml, IL-6 200 ng/ml, FIG. 12
[7] = macrophages of Donor 5, 48 hours, peptides 50 μg/ml vs IL-6 200 ng/ml, FIG. 13
[8] = macrophages of Donor 4, 48 hours, peptides up to 250 μg/ml, IL-6 100 ng/ml and 50 ng/ml, FIG. 7
[9] = macrophages of Donors 1-3, 48 hours, Peptide 6 up to 1000 μg/ml, IL-6 50 ng/ml, FIG. 1A-1C
[10] = macrophages of Donors 1-3, 48 hours, Peptide 6 125-1000 μg/ml, IL-6 5-200 ng/ml, FIG. 2B-2D
[11] = macrophages of Donor 4, 48 hours, peptides 50 ng/ml-250 μg/ml vs IL-6 100 and 50 ng/ml, FIG. 8

6M14: short form peptide of Peptide 6, sequence SEQ ID NO. 3 (EQARAVQMSTKVLI) [Peptide 6M14]
TNF-α secretion of macrophages [1, 6]: almost do not induce TNF-α secretion | MCP-1 secretion of macrophages [2, 7]: a higher level of MCP-1 secretion than IL-6

IL-6: interleukin; mature form has the sequence of SEQ ID NO. 1; comparator
TNF-α secretion of macrophages [1, 8]: a great quantity of TNF-α | TNF-α secretion of macrophages [1, 6]: a great quantity of TNF-α | TNF-α secretion of macrophages [1, 9]: can induce macrophages to secrete TNF-α | MCP-1 secretion of HUVECs [3]: a lower quantity of MCP-1 | MCP-1 secretion of macrophages [2, 10]: a lower quantity of MCP-1

ITRI-2: isoform of Peptide 6 (SEQ ID NO. 6) with one D-form amino acid: valine at position 13 (NRFESSEEQARA[dV]QMSTKVLIQFLQKKA)
TNF-α secretion of macrophages [1, 8]: a low level of TNF-α | MCP-1 secretion of macrophages [2, 11]: a higher level of MCP-1 secretion than IL-6 | MMP9 secretion of HaCaT [4]: a higher level of MMP9 secretion than IL-6

Peptide 6: IL-6-derived peptide, sequence SEQ ID NO. 6, corresponds to amino acids of positions 102 to 129 of mature form IL-6 (NRFESSEEQARAVQMSTKVLIQFLQKKA)
TNF-α secretion of macrophages [1, 8]: a low level of TNF-α | TNF-α secretion of macrophages [1, 6]: almost do not induce TNF-α secretion | TNF-α secretion of macrophages [1, 9]: does not induce macrophages to secrete TNF-α | MCP-1 secretion of HUVECs [3]: a great quantity of MCP-1 | MCP-1 secretion of macrophages [2, 11]: a higher level of MCP-1 secretion than IL-6 | MCP-1 secretion of macrophages [2, 7]: a higher level of MCP-1 secretion than IL-6 | MCP-1 secretion of macrophages [2, 10]: a great quantity of MCP-1 | cell migration of HaCaT [5]: can promote cell migration | MMP9 secretion of HaCaT [4]: a higher level of MMP9 secretion than IL-6
